For orientation: IC50 means the concentration that inhibits the measured activity by half. Read a high IC50 as weaker potency.

The assay relates to HCT 116 cells transfected with a luciferase reporter under the control of an HIF-responsive sequence. Nature of the assay: HIF-luciferase assay. The assay is classed as cell-based. As to conditions: Homo sapiens; HCT 116 HIF-luciferase reporter cells, hypoxia chamber (1% O2), 24 h; in some cases means of up to four individual determinations. On the procedure: B-1. HIF-Luciferase Assay
HCT 116 cells were transfected in a stable manner with a plasmid which contained a luciferase reporter under the control of an HIF-responsive sequence. These cells were sown in microtitre plates [20000 cells/cavity in RPMI 1640 medium with 10% foetal calf serum (FCS) and 100 μg/ml of hygromycin]. Incubation was carried out overnight under standard conditions (5% CO2, 21% O2, 37° C., moistened). The following morning the cells were incubated with various concentrations of the test substances (0-10 μmol/l) in a hypoxia chamber (1% O2). After 24 h, Bright Glo reagent (Promega, Wisconsin, USA) was added in accordance with the manufacturer's instructions, and after 5 min the luminescence was measured. Cells which were incubated under normoxia served as background controls.

The compound `CC(C)(c1ccc(-c2noc(-c3ccc(=O)n(Cc4cccc(C(=O)N5CCC(O)CC5)c4)c3)n2)cc1)C(F)(F)F` [Example 33, 1-{3-[(4-Hydroxypiperidin-1-yl)carbonyl]benzyl}-5-{3-[4-(1,1,1-trifluoro-2-methylpropan-2-yl)phenyl]-1,2,4-oxadiazol-5-yl}pyridin-2(1H)-one] had an IC50 of 6 nM.
As for `O=C(c1cccc(Cn2cc(-c3nc(-c4ccc(OC(F)(F)F)cc4)no3)ccc2=O)c1)N1CCOCC1` [Example 34, 1-[3-(Morpholin-4-ylcarbonyl)benzyl]-5-{3-[4-(trifluoromethoxy)phenyl]-1,2,4-oxadiazol-5-yl}pyridin-2(1H)-one], the figure is 4 nM; as for `CC(C)(c1ccc(-c2noc(-c3ccc(=O)n(Cc4cccc(C(=O)N5CCOCC5)c4)c3)n2)cc1)C(F)(F)F` [Example 35, 1-[3-(Morpholin-4-ylcarbonyl)benzyl]-5-{3-[4-(1,1,1-trifluoro-2-methylpropan-2-yl)phenyl]-1,2,4-oxadiazol-5-yl}pyridin-2(1H)-one], 20 nM; as for `CN1CCN(C(=O)c2cccc(Cn3cc(-c4nc(-c5ccc(OC(F)(F)F)cc5)no4)ccc3=O)c2)CC1` [Example 36, 1-{3-[(4-Methylpiperazin-1-yl)carbonyl]benzyl}-5-{3-[4-(trifluoromethoxy)phenyl]-1,2,4-oxadiazol-5-yl}pyridin-2(1H)-one], 5 nM.
Under `CN1CCN(C(=O)c2cccc(Cn3cc(-c4nc(-c5ccc(C(C)(C)C(F)(F)F)cc5)no4)ccc3=O)c2)CC1` [Example 37, 1-{3-[(4-Methylpiperazin-1-yl)carbonyl]benzyl}-5-{3-[4-(1,1,1-trifluoro-2-methylpropan-2-yl)phenyl]-1,2,4-oxadiazol-5-yl}pyridin-2(1H)-one] stands 10 nM.
As for `O=C(c1cccc(Cn2cc(-c3nc(-c4ccc(OC(F)(F)F)cc4)no3)ccc2=O)c1)N1CCN(C2CC2)CC1` [Example 38, 1-{3-[(4-Cyclopropylpiperazin-1-yl)carbonyl]benzyl}-5-{3-[4-(trifluoromethoxy)phenyl]-1,2,4-oxadiazol-5-yl}pyridin-2(1H)-one], the figure is 3 nM.
The compound `CC(C)(c1ccc(-c2noc(-c3ccc(=O)n(Cc4cccc(C(=O)N5CCN(C6CC6)CC5)c4)c3)n2)cc1)C(F)(F)F` [Example 39, 1-{3-[(4-Cyclopropylpiperazin-1-yl)carbonyl]benzyl}-5-{3-[4-(1,1,1-trifluoro-2-methylpropan-2-yl)phenyl]-1,2,4-oxadiazol-5-yl}pyridin-2(1H)-one] returned an IC50 of 5 nM.
Consider `CC(=O)OC1(c2cccc(Cn3cc(-c4nc(-c5ccc(OC(F)(F)F)cc5)no4)ccc3=O)c2)CC1` [Example 40, 1-(3-{[2-Oxo-5-{3-[4-(trifluoromethoxy)phenyl]-1,2,4-oxadiazol-5-yl}pyridin-1(2H)-yl]methyl}phenyl)cyclopropyl acetate], for which half-maximal inhibition (IC50) required 2.5 nM.
`CC(C)(O)Cc1cccc(Cn2cc(-c3nc(-c4ccc(OC(F)(F)F)cc4)no3)ccc2=O)c1` [Example 41, 1-[3-(2-Hydroxy-2-methylpropyl)benzyl]-5-{3-[4-(trifluoromethoxy)phenyl]-1,2,4-oxadiazol-5-yl}pyridin-2(1H)-one] returned an IC50 of 5 nM.
As for `CC(C)(O)Cc1cccc(Cn2cc(-c3nc(-c4ccc(C(C)(C)C(F)(F)F)cc4)no3)ccc2=O)c1` [Example 42, 1-[3-(2-Hydroxy-2-methylpropyl)benzyl]-5-{3-[4-(1,1,1-trifluoro-2-methylpropan-2-yl)phenyl]-1,2,4-oxadiazol-5-yl}pyridin-2(1H)-one], the figure is 8 nM; as for `O=c1ccc(-c2nc(-c3ccc(OC(F)(F)F)cc3)no2)cn1Cc1cccc(C2(CO)CC2)c1` [Example 43, 1-{3-[1-(Hydroxymethyl)cyclopropyl]benzyl}-5-{3-[4-(trifluoromethoxy)phenyl]-1,2,4-oxadiazol-5-yl}pyridin-2(1H)-one], 10 nM.
As to `CC(C)(c1ccc(-c2noc(-c3ccc(=O)n(Cc4cccc(C5(CO)CC5)c4)c3)n2)cc1)C(F)(F)F` [Example 44, 1-{3-[1-(Hydroxymethyl)cyclopropyl]benzyl}-5-{3-[4-(1,1,1-trifluoro-2-methylpropan-2-yl)phenyl]-1,2,4-oxadiazol-5-yl}pyridin-2(1H)-one], the IC50 was found to be 15 nM.
Under `N#CC1CCN(c2cc(Cn3cc(-c4nc(-c5ccc(OC(F)(F)F)cc5)no4)ccc3=O)ccn2)CC1` [Example 45, 1-(4-{[2-oxo-5-{3-[4-(trifluoromethoxy)phenyl]-1,2,4-oxadiazol-5-yl}pyridin-1(2H)-yl]methyl}pyridin-2-yl)piperidine-4-carbonitrile] stands 5 nM.
As for `CN1CCN(c2cc(Cn3cc(-c4nc(-c5ccc(SC(F)(F)F)cc5)no4)ccc3=O)ccn2)CC1` [Example 47, 1-{[2-(4-Methylpiperazin-1-yl)pyridin-4-yl]methyl}-5-(3-{4-[(trifluoromethyl)sulphanyl]phenyl}-1,2,4-oxadiazol-5-yl)pyridin-2(1H)-one], the figure is 40 nM.
The compound `CN1CCN(c2cc(Cn3cc(-c4nc(-c5ccc(C6(C(F)(F)F)CC6)cc5)no4)ccc3=O)ccn2)CC1` [Example 48, 1-{[2-(4-Methylpiperazin-1-yl)pyridin-4-yl]methyl}-5-(3-{4-[1-(trifluoromethyl)cyclopropyl]phenyl}-1,2,4-oxadiazol-5-yl)pyridin-2(1H)-one] showed an IC50 of 50 nM.
As for `O=c1ccc(-c2nc(-c3ccc(OC(F)(F)F)cc3)no2)cn1Cc1ccnc(N2CCN(CC(F)(F)F)CC2)c1` [Example 49, 1-({2-[4-(2,2,2-Trifluoroethyl)piperazin-1-yl]pyridin-4-yl}methyl)-5-{3-[4-(trifluoromethoxy)phenyl]-1,2,4-oxadiazol-5-yl}pyridin-2(1H)-one], the figure is 3 nM.
Take `O=c1ccc(-c2nc(-c3ccc(OC(F)(F)F)cc3)no2)cn1Cc1ccnc(N2CCN(C3CC3)CC2)c1` [Example 51, 1-{[2-(4-Cyclopropylpiperazin-1-yl)pyridin-4-yl]methyl}-5-{3-[4-(trifluoromethoxy)phenyl]-1,2,4-oxadiazol-5-yl}pyridin-2(1H)-one]: inhibition was half-maximal at 2 nM (IC50).
As for `O=c1ccc(-c2nc(-c3ccc(SC(F)(F)F)cc3)no2)cn1Cc1ccnc(N2CCN(C3CC3)CC2)c1` [Example 52, 1-{[2-(4-Cyclopropylpiperazin-1-yl)pyridin-4-yl]methyl}-5-(3-{4-[(trifluoromethyl)sulphanyl]phenyl}-1,2,4-oxadiazol-5-yl)pyridin-2(1H)-one], the figure is 5 nM.
Regarding `CC(C)(c1ccc(-c2noc(-c3ccc(=O)n(Cc4ccnc(N5CCN(C6CC6)CC5)c4)c3)n2)cc1)C(F)(F)F` [Example 53, 1-{[2-(4-Cyclopropylpiperazin-1-yl)pyridin-4-yl]methyl}-5-{3-[4-(1,1,1-trifluoro-2-methylpropan-2-yl)phenyl]-1,2,4-oxadiazol-5-yl}pyridin-2(1H)-one], the IC50 was 4 nM.
`O=c1ccc(-c2nc(-c3ccc(C4(C(F)(F)F)CC4)cc3)no2)cn1Cc1ccnc(N2CCN(C3CC3)CC2)c1` [Example 54, 1-{[2-(4-Cyclopropylpiperazin-1-yl)pyridin-4-yl]methyl}-5-(3-{4-[1-(trifluoromethyl)cyclopropyl]phenyl}-1,2,4-oxadiazol-5-yl)pyridin-2(1H)-one] came in with an IC50 of 4 nM.

Values taken from patent publication US20140329797A1, “SUBSTITUTED OXADIAZOLYL PYRIDINONES AND OXADIAZOLYL PYRIDAZINONES AS HIF INHIBITORS” (Bayer Intellectual Property GmbH, priority 2011, published 2014).
